Like-named read-outs stand apart in the source and are kept apart here.
Experiments:
III-B strain of HIV-1 = test: microbe, parasite or virus in culture; format: cell-based
Description: (§1) C8166 cells. Cells were grown in RPMI 1640 with 10% calf serum. 4×10^4 cells per microtiter plate well were mixed with 5-fold dilutions of compound prior to addition of 10 CCID50 units of III-B strain of HIV-1 and incubated for 5–7 days (Betbeder et al. Antiviral Chem. Chemother. 1, 241–247, 1990). Formation of syncytia was examined from 2 days post-infection. Culture fluid was collected at 5–7 days and gp120 antigen production measured by ELISA (Mahmood and Hay, J. Immunol. Meth., 151, 9–13, 1992). […] Cell viability of infected and uninfected cells were assessed by the MTT-Formazen method (Pauwels et al. J. Virol. Meth. 20, 309–321, 1988).
(§2) Each assay was carried out in duplicate, on at least two separate occasions, and data quoted are the average of each separate assay.

C8166 cells = test: Toxicity in C8166 cells (MTT-Formazen); format: cell-based; settings: Table 3
Description: as §1, §2

HIV-1 [1] = test: Inhibition of HIV-1 in MT4 cells; format: cell-based; settings: Table 6; mean of two or more repeat experiments; read-out: HIV1 MT4: EC50 for inhibition of HIV-1 in MT4 cells
Description: (§3) Cells were infected with HIV-1 as previously described [Balzarini et al. AIDS (1991), 5, 21–28]. Briefly, 5×10^5 cells per milliliter were infected with HIV-1 or HIV-2 at 100 CCID50 (50% cell culture infective dose) per milliliter of cell suspension. Then 100 μL of the infected cell suspension was transferred to microtiter plate wells and mixed with 100 μL of the appropriate dilutions of the test compounds. After 4 days giant cell formation was recorded microscopically in the HIV-infected cell cultures [CEM], and after 5 days the number of viable cells was determined by trypan blue staining of the HIV-infected cell cultures [MT4].
(§4) The data columns are, in order: • HIV1 MT4: EC50 in μM for inhibition of HIV-1 in MT4 cells. • HIV2 MT4: EC50 in μM for inhibition of HIV-2 in MT4 cells. • CC50 MT4: CC50 in μM for toxicity to MT-4 cells. • HIV1 CEM: EC50 in μM for inhibition of HIV-1 in CEM cells. • HIV2 CEM: EC50 in μM for inhibition of HIV-2 in CEM cells. • HIV2 CEM-TK-: EC50 in μM for inhibition of HIV-2 in CEM/TK^− cells. • CC50 CEM: CC50 in μM for toxicity to CEM cells. • EC50 MSV: EC50 in μM for inhibition of MSV • MCC MSV: Minimum cytotoxic concentration in MSV assay

HIV-2 [2] = test: Inhibition of HIV-2 in MT4 cells; format: cell-based; settings: Table 6; mean of two or more repeat experiments; read-out: HIV2 MT4: EC50 for inhibition of HIV-2 in MT4 cells
Description: as §3, §4

MT-4 cells = test: Toxicity to MT-4 cells; format: cell-based, human; settings: Table 6; mean of two or more repeat experiments; read-out: CC50 MT4: CC50 for toxicity to MT-4 cells
Description: as §3, §4

HIV-1 [3] = test: microbe, parasite or virus in culture
How it was run: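 MT4 or CEM cells at 5×10^5/mL were infected with HIV-1 or HIV-2 at 100 CCID50/mL and cultured with compound dilutions. CEM endpoint: microscopic giant-cell formation after 4 days; MT4 endpoint: viable-cell count by trypan blue after 5 days. EC50 and CC50 in μM.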

HIV-2 [4] = test: Inhibition of HIV-2 in CEM cells (giant cell formation); format: cell-based; settings: Table 6; mean of two or more repeat experiments; read-out: HIV2 CEM: EC50 for inhibition of HIV-2 in CEM cells
How it was run: (§5)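 Infection used 100 CCID50 per mL on 5×10^5 cells/mL, followed by exposure to serial compound dilutions. Read-out: microscopic giant cell scoring after 4 days (CEM); trypan blue viable cell count after 5 days (MT-4).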

HIV-2 [5] = test: Inhibition of HIV-2 in CEM/TK- cells; format: cell-based
How it was run: as §5

CEM cells = test: Toxicity to CEM cells; format: cell-based, human; settings: Table 6; mean of two or more repeat experiments
HIV1 d4T-Sensitive = test: HIV1 in HeLa cells, d4T-sensitive strain; format: cell-based, HIV-1; settings: Table 4
HIV1 d4T-Resistant = test: HIV1 in HeLa cells, d4T-resistant strain; format: cell-based, HIV-1; settings: Table 4; read-out: EC50 HeLa HIV1 d4T-Resistant
[6] = HIV1 in C8166 cells, Table 3, read-out: Activity EC50
[7] = Table 4, read-out: EC50 8166 HIV1
[8] = read-out: EC50 CEM HIV1, Table 4
[9] = read-out: HIV1 CEM: EC50 for inhibition of HIV-1 in CEM cells, Table 6, mean of two or more repeat experiments
[10] = Table 4, read-out: EC50 CEM TK− HIV2
[11] = Table 6, mean of two or more repeat experiments, read-out: HIV2 CEM-TK-: EC50 for inhibition of HIV-2 in CEM/TK^− cells

Row | SMILES | Selectivity CC50/EC50 × 10^3 (III-B strain of HIV-1) | EC50 (III-B strain of HIV-1; [6]) [µM] | EC50 (III-B strain of HIV-1; [7]) [µM] | CC50 (C8166 cells) [µM] | EC50 (HIV-1 [1]) [µM] | EC50 (HIV-2 [2]) [µM] | CC50 (MT-4 cells) [µM] | EC50 (HIV-1 [3]; [8]) [µM] | EC50 (HIV-1 [3]; [9]) [µM] | EC50 (HIV-2 [4]) [µM] | EC50 (HIV-2 [5]; [10]) [µM] | EC50 (HIV-2 [5]; [11]) [µM] | CC50 (CEM cells) [µM] | EC50 (HIV1 d4T-Sensitive) [µM] | EC50 (HIV1 d4T-Resistant) [µM]
1 | COC(=O)C(C)NP(=O)(OCC1C=CC(n2cc(C)c(=O)[nH]c2=O)O1)Oc1cccc(C(F)(F)F)c1 (stereo not drawn) [Compound 526, 2′,3′-dideoxy-2′,3′-didehydrothymidine 5′-(m-trifluromethylphenylmethoxyalaninyl) phosphoramidate] | 250 × 10^3 | 0.0008 | 0.0008 | 200 | 0.05 | 0.11 | 10 | 0.08 | 0.15 | 0.15 | 0.06 | 0.12 | 30 | 0.04 | 0.05
2 | COC(=O)C(C)NP(=O)(OC[C@@H]1C=C[C@H](n2cc(C)c(=O)[nH]c2=O)O1)Oc1cc(Cl)cc(Cl)c1 (stereo partly drawn) [Compound 546, 2′,3′-dideoxy-2′,3′-didehydrothymidine 5′-(3,5-dichlorophenylmethoxyalaninyl) phosphoramidate] | 100 × 10^3 | 0.001 | 0.001 | 100 | 0.037 | 0.12 | 10.5 | 0.06 | 0.12 | 0.15 | 0.06 | 0.12 | 26.9 | 0.03 | 0.04

From patent publication US7018989B2, “Chemical compounds” (University College Cardiff Consultants, LTD, priority 1995, dated 2006)
